From patent US20250296959A1, “B7-H3 TARGETING PEPTIDES AND CONSTRUCTS THEREOF” (Mariana Oncology Inc., priority 2024, published 2025)
Where two headings read alike, the source gives them in different places. Starred links: 1 amine or outer side, 2 acyl side, 3 side chain; linkers in the order of their positions; H or OH if unused. Positions of bridges follow the written chain, without caps; N, C: chain ends. Non-standard residues stand in square brackets, D forms with d. Residues, ends and D or L forms follow the SMILES beside them. Groups on a side chain read outwards from the residue. *: point of attachment. X2 = O=C(O)CN1CCN(CC(=O)O)CCN(CC(=O)NCCOCCOCCOCCOCC(=O)*)CCN(CC(=O)O)CC1; Ala(1-CH2CO2H-4-piperidyl) = N[C@@H](CC1CCN(CC(=O)O)CC1)C(=O)O; Ala(piperidin-4-yl) = O=C([C@H](CC1CCN([*:3])CC1)N[*:1])[*:2]; DOTA = O=C(O)CN1CCN(CC(=O)O)CCN(CC(=O)*)CCN(CC(=O)O)CC1; Trp(5-F) = N[C@@H](Cc1c[nH]c2ccc(F)cc12)C(=O)O; 1Nal = N[C@@H](Cc1cccc2ccccc12)C(=O)O; Ala(4-THP) = N[C@@H](CC1CCOCC1)C(=O)O; X3 = O=C([C@H](CCC1CCC1)N[*:1])[*:2]; Val(3-OH) = CC(C)(O)[C@H](N)C(=O)O; 4Pal = N[C@@H](Cc1ccncc1)C(=O)O; Aad = N[C@@H](CCCC(=O)O)C(=O)O; Chg = N[C@H](C(=O)O)C1CCCCC1; Tle = CC(C)(C)[C@H](N)C(=O)O; hLeu = CC(C)CC[C@H](N)C(=O)O

What was measured:
[1] = test system: Calu-6 cell line; assay: Net internalization of [177Lu]Lu-labeled peptide in Calu-6 cells; type: cell-based, Human; details: 1 hour, 37° C., glycine pH 2.5 acid wash
Experimental: (§1) [^177Lu]LuCl3 was received from venders in HCl solution. For every mCi of [^177Lu]LuCl3 added to the reaction vial (1.5 mL Eppendorf vial), ammonium acetate buffer (0.2 M, pH 4.9, 100 μL, containing 1% w/v ascorbic acid and 6% v/v ethanol) and peptide conjugate (1 nmol) was added. The pH of the solution was determined to be approximately 5 by using pH strips. The reaction vial was incubated at 80° C., 700 RPM for 17-20 minutes. A sample from the reaction was analyzed by RP-HPLC using an Agilent Infinity II 1260 HPLC to determine reaction completion and radiochemical purity. HPLC conditions: Waters XBridge BEH C18 Column, 130 Å, 3.5 μm, 4.6 mm×250 mm; mobile phase: Solvent A=water (with 0.1% formic acid), solvent B=acetonitrile (with 0.1% formic acid). Gradients: 25-45% B in 10 minutes, 45-65% B in 12 minutes, 65-90% in 6 minutes at a flow rate of 0.5 mL/minute. Required amounts of the product were formulated in 1% PBSA for cell studies.
(§2) The study was conducted using Calu-6 cell line (Table 8)
(§3) Adherent cell studies: The cells were cultured in appropriate culture media (20 mL) in tissue culture treated T150 flasks at 37° C. and 5% CO2. Adherent cells were detached (60-70% confluent) using 5 mL Versene at 37° C. for 3 minutes. After confirming the viability using countess and count of detached cells using Trypan blue, the cells were centrifuged at 4° C. for 5 minutes (1,000 revolutions per minute). The cell pellet obtained was washed once with PBS and resuspended in 1% PBSA to obtain the desired cell concentration (5 million cells/mL).
Net internalization: The resuspended cells in 300 μl of 1% PBSA and counted in the gamma counter as “bound fraction” were collected in 1.5 mL Eppendorf tube and pelleted. The pelleted cells were incubated with 300 μl of 50 mM Glycine pH=2.5 for 3 minutes and then pelleted discarding the supernatant. This process was repeated one more time. The pelleted cells were washed with 300 μl of cold 1% PBSA and then resuspended in 300 μl 0.3 M NaOH. This was counted in the gamma counter as “internalized fraction”.
(§4) Calu-6 Cells are Human-Derived, Non-Engineered Lung Cancer Cell that Express B7-H3.

[2] = test system: Calu-6 cell line; assay: Cell associated (bound) fraction of [177Lu]Lu-labeled peptide in Calu-6 cells; type: cell-based, Human; details: 1 hour, 37° C.
Experimental: as §1, §2, §3
Cell associated fraction: Cells were incubated with 300 μL (0.8 μCi) of the incubation buffer (containing radiolabeled peptide [^177Lu]Lu-test peptide) for 1 hour at 37 C (Table 9). Post incubation, the cells were pelleted and washed 2 times using cold PBS+1% BSA. The supernatant and washes were combined and counted together as “unbound fraction” in a gamma counter. The cells were then resuspended in 300 μL of 1% PBS+1% BSA and counted in the gamma counter as cell associated fraction (or bound fraction).
as §4

[3] = molecular target: T1, human 4lg B7-H3 (Homo sapiens, UniProt Q5ZPR3); assay: Affinity determination by surface plasmon resonance (SPR) to 4Ig B7-H3; details: 4Ig B7-H3
T1 sequence (Q5ZPR3 29-534): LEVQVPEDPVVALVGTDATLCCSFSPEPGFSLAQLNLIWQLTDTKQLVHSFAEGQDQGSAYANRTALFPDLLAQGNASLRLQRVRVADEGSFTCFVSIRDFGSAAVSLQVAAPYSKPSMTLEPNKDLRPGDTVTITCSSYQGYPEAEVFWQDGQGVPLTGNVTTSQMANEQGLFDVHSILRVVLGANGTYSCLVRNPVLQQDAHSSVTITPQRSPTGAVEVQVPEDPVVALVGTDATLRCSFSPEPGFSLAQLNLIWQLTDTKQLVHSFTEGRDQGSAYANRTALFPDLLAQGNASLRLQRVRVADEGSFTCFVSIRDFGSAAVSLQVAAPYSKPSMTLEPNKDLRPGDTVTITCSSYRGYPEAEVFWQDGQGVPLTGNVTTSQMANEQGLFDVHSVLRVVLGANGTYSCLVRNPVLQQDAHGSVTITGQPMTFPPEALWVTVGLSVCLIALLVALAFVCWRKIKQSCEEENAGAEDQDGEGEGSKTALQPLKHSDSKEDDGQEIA

[4] = SPR KD—25° C., 25° C. flow cell temperature
[5] = read-out: SPR KD—37° C., 37° C. flow cell temperature
[6] = read-out: SPR KD—25° C., 25° C. flow cell temperature

CC(=O)N[C@@H](CCC(C)C)C(=O)N[C@@H](Cc1ccc(O)cc1)C(=O)N[C@H]1CSSC[C@@H](C(=O)N[C@@H](Cc2c[nH]c3ccc(F)cc23)C(=O)N[C@@H](Cc2ccccc2)C(=O)N[C@H](C(=O)N[C@H](CCCCNC(=O)COCCOCCOCCOCCNC(=O)CN2CCN(CC(=O)O)CCN(CC(=O)O)CCN(CC(=O)O)CC2)C(=O)O)C(C)(C)O)NC(=O)[C@H](Cc2ccc(O)cc2)NC(=O)[C@H](C(C)C)NC(=O)[C@H](CC(=O)O)NC(=O)[C@H](CC2CCOCC2)NC(=O)[C@H](CCCCN)NC(=O)CNC(=O)[C@H](C(C)(C)C)NC1=O [compound 310, Ac-hLeu-Y-C-Tbg-G-K-ThpA-D-V-Y-C-5FW-F-hydroxyVal-dLys(PEG4-DOTA)-COOH] (Ac-[hLeu]YC[Tle]GK[Ala(4-THP)]DVYC[Trp(5-F)]F[Val(3-OH)][dK](X2)-OH; disulfide 3-11)
% net internalization [1]: B (25<%≤50)
% cell associated fraction [2]: C (%>50)
Kd [3, 4]: < 1 nM
Kd ([3]; SPR KD—37° C., 37° C. flow cell temperature): < 1 nM

CC(=O)N[C@@H](CCC1CCC1)C(=O)N[C@@H](Cc1ccc(O)cc1)C(=O)N[C@H]1CSSC[C@@H](C(=O)N[C@@H](Cc2c[nH]c3ccc(F)cc23)C(=O)N[C@@H](Cc2ccccc2)C(=O)N[C@H](C(=O)N[C@H](CCCCNC(=O)CN2CCN(CC(=O)O)CCN(CC(=O)O)CCN(CC(=O)O)CC2)C(=O)O)C(C)(C)O)NC(=O)[C@H](Cc2ccc(O)cc2)NC(=O)[C@H](C(C)C)NC(=O)[C@H](CC(=O)O)NC(=O)[C@H](CC2CCOCC2)NC(=O)[C@H](CCCCN)NC(=O)CNC(=O)[C@H](C(C)(C)C)NC1=O [compound 398, Ac-hCba-Y-C-Tbg-G-K-ThpA-D-V-Y-C-5FW-F-hydroxyVal-dLys(DOTA)-COOH] (Ac-[X3]YC[Tle]GK[Ala(4-THP)]DVYC[Trp(5-F)]F[Val(3-OH)][dK](DOTA)-OH; disulfide 3-11)
% net internalization [1]: A (%≤25)
% cell associated fraction [2]: B (25<%≤50)
Kd [3, 5]: < 1 nM

CC(=O)N[C@@H](CCC(C)C)C(=O)N[C@@H](Cc1ccc(O)cc1)C(=O)N[C@H]1CSSC[C@@H](C(=O)N[C@@H](Cc2cccc3ccccc23)C(=O)N[C@@H](Cc2ccccc2)C(=O)N2CCC[C@H]2C(N)=O)NC(=O)[C@H](Cc2ccc(O)cc2)NC(=O)[C@H](C(C)C)NC(=O)[C@H](CC(=O)O)NC(=O)[C@H](Cc2ccncc2)NC(=O)[C@H](CCCCNC(=O)COCCOCCOCCOCCNC(=O)CN2CCN(CC(=O)O)CCN(CC(=O)O)CCN(CC(=O)O)CC2)NC(=O)CNC(=O)[C@H](C(C)(C)C)NC1=O [compound 256, Ac-hLeu-Y-C-Tbg-G-Lys(PEG4-DOTA)-4PyA-D-V-Y-C-1Nal-F-Pro-CONH2] (Ac-[hLeu]YC[Tle]GK(X2)[4Pal]DVYC[1Nal]FP-NH2; disulfide 3-11)
% net internalization [1]: A (%≤25)
% cell associated fraction [2]: A (%≤25)
Kd [3, 4]: 1 to 10 nM

CC(=O)N[C@@H](CCC(C)C)C(=O)N[C@@H](Cc1ccc(O)cc1)C(=O)N[C@H]1CSSC[C@@H](C(=O)N[C@@H](Cc2c[nH]c3ccc(F)cc23)C(=O)N[C@@H](Cc2ccccc2)C(=O)N[C@H](C(=O)N[C@H](CCCCNC(=O)[C@H](CCCC(=O)O)NC(=O)CN2CCN(CC(=O)O)CCN(CC(=O)O)CCN(CC(=O)O)CC2)C(=O)O)C(C)(C)O)NC(=O)[C@H](Cc2ccc(O)cc2)NC(=O)[C@H](C(C)C)NC(=O)[C@H](CC(=O)O)NC(=O)[C@H](CC2CCOCC2)NC(=O)[C@H](CC2CCNCC2)NC(=O)CNC(=O)[C@H](C(C)(C)C)NC1=O [compound 464, Ac-hLeu-Y-C-Tbg-G-PipAla-ThpA-D-V-Y-C-5FW-F-hydroxyVal-dLys(hGlu-DOTA)-COOH] (Ac-[hLeu]YC[Tle]G[Ala(piperidin-4-yl)][Ala(4-THP)]DVYC[Trp(5-F)]F[Val(3-OH)][dK]([Aad-DOTA])-OH; disulfide 3-11)
% net internalization [1]: A (%≤25)
% cell associated fraction [2]: C (%>50)
Kd [3, 5]: < 1 nM

CC(=O)N[C@@H](CCC(C)C)C(=O)N[C@@H](Cc1ccc(O)cc1)C(=O)N[C@H]1CSSC[C@@H](C(=O)N[C@@H](Cc2c[nH]c3ccc(F)cc23)C(=O)N[C@@H](Cc2ccccc2)C(=O)N[C@H](C(=O)N[C@H](CCCCNC(=O)CN2CCN(CC(=O)O)CCN(CC(=O)O)CCN(CC(=O)O)CC2)C(N)=O)[C@@H](C)O)NC(=O)[C@H](Cc2ccc(O)cc2)NC(=O)[C@H](C2CCCCC2)NC(=O)[C@H](CC(=O)O)NC(=O)[C@H](Cc2ccncc2)NC(=O)[C@H](CCCCN)NC(=O)CNC(=O)[C@H](C(C)C)NC1=O [compound 190, Ac-hLeu-Y-C-V-G-K-4PyA-D-ChG-Y-C-5FW-F-Thr-dLys(DOTA)-CONH2] (Ac-[hLeu]YCVGK[4Pal]D[Chg]YC[Trp(5-F)]FT[dK](DOTA)-NH2; disulfide 3-11)
% net internalization [1]: B (25<%≤50)
% cell associated fraction [2]: C (%>50)
Kd [3, 6]: < 1 nM

CC(=O)N[C@@H](CCC(C)C)C(=O)N[C@@H](Cc1ccc(O)cc1)C(=O)N[C@H]1CSSC[C@@H](C(=O)N[C@@H](Cc2c[nH]c3ccccc23)C(=O)N[C@@H](Cc2ccccc2)C(=O)N[C@H](C(=O)N[C@H](CCCCNC(=O)CN2CCN(CC(=O)O)CCN(CC(=O)O)CCN(CC(=O)O)CC2)C(N)=O)[C@@H](C)O)NC(=O)[C@H](Cc2ccc(O)cc2)NC(=O)[C@H](C(C)C)NC(=O)[C@H](CC(=O)O)NC(=O)[C@H](Cc2ccc(O)cc2)NC(=O)[C@H](CCCCN)NC(=O)CNC(=O)[C@H](C(C)(C)C)NC1=O [compound 72, Ac-hLeu-Y-C-Tbg-G-K-Y-D-V-Y-C-W-F-Thr-dLys(DOTA)-CONH2] (Ac-[hLeu]YC[Tle]GKYDVYCWFT[dK](DOTA)-NH2; disulfide 3-11)
% net internalization [1]: A (%≤25)
% cell associated fraction [2]: C (%>50)
Kd [3, 6]: < 1 nM

CC(=O)N[C@@H](CCC(C)C)C(=O)N[C@@H](Cc1ccc(O)cc1)C(=O)N[C@H]1CSSC[C@@H](C(=O)N[C@@H](Cc2c[nH]c3ccc(F)cc23)C(=O)N[C@@H](Cc2ccccc2)C(=O)N[C@H](C(=O)N[C@H](CCCCNC(=O)CN2CCN(CC(=O)O)CCN(CC(=O)O)CCN(CC(=O)O)CC2)C(=O)O)C(C)(C)O)NC(=O)[C@H](Cc2ccc(O)cc2)NC(=O)[C@H](C(C)C)NC(=O)[C@H](CC(=O)O)NC(=O)[C@H](CC2CCOCC2)NC(=O)[C@H](CC2CCN(CC(=O)O)CC2)NC(=O)CNC(=O)[C@H](C(C)(C)C)NC1=O [compound 339, Ac-hLeu-Y-C-Tbg-G-[Pip(CH2CO2H)Ala]-ThpA-D-V-Y-C-5FW-F-hydroxyVal-dLys(DOTA)-COOH] (Ac-[hLeu]YC[Tle]G[Ala(1-CH2CO2H-4-piperidyl)][Ala(4-THP)]DVYC[Trp(5-F)]F[Val(3-OH)][dK](DOTA)-OH; disulfide 3-11)
% net internalization [1]: B (25<%≤50)
% cell associated fraction [2]: C (%>50)
Kd [3, 5]: < 1 nM

Ac-hLeu-Y-C-Tbg-G-Pip(PEG4-DOTA)Ala-ThpA-D-V-Y-C-5FW-[(2S, 3S)beta-Me-Phe]-hydroxyVal-dAla-COOH [compound 494]
% net internalization [1]: B (25<%≤50)
% cell associated fraction [2]: C (%>50)
